Test results as given in publication PMC5019375, “Characterization of Potent SMAC Mimetics that Sensitize Cancer Cells to TNF Family-Induced Apoptosis” (PLoS ONE, 2016).
“And” between values parts separate entries of the source, which are not always exact repeats. Identical values can stand only once. No end group written: not given here.

Key:
[1] = system: PC-3 prostate cancer cells; experiment: Cytotoxicity assay, sensitization to LT-α (CellTiter-Glo); assay type: cell-based, human; design: key to LT-α EC50: IN: EC50 too weak to be determined
Procedure: (§1) Cellular cytotoxicity experiments were conducted in white 96-well flat bottom plates (Greiner Bio-One #655074). PC-3 prostate cancer cells were seeded into microtiter wells in 90 μL RPMI medium with 10% fetal calf serum and antibiotics at 5,000 cells per well, and then incubated overnight at 37°C with 5% CO2/95% air. The next day, compounds diluted into the same culture medium and added in 10 μL aliquots to achieve various final concentrations, maintaining a uniform total volume per well. Either TNF (at 10 nM final) or LT-α (at ~90 pM final) resuspended in 10 μL of RPMI with 10% fetal calf serum and antibiotics was added to wells or an equal volume of medium was applied for the control well. The plates were then further incubated for 24 h. Subsequently, cell viability was assessed by the addition of 25 μL per well of Cell-Titer-Glo reagent (Promega, Inc). Plates were read using a Luminoskan Ascent luminometer.
(§2) The cellular activity of cIAP1 and cIAP2 inhibitors was evaluated through experiments where cytotoxicity of a human prostate tumor cell line (PC-3) was assessed in the presence or absence of cytokines TNF and LT-α. The experimental approach we used was to provide TNF or LT-α at a fixed concentration, which by itself was non-cytotoxic, then titrate SMAC mimetics into the cell cultures. […] The compound series described in this work has been tested against a broad range of cell lines (data not shown and [23]) and single agent toxicity was only observed for SKOV3 ovarian tumor cells. This agrees with the findings of Varfolomeev, Vince and Lalaoui, respectively.

[2] = target: cIAP1-BIR3 (Homo sapiens, UniProt Q13490); experiment: FP competition assay, displacement of SMAC-rhodamine; settings: for binding affinity for cIAP1 and cIAP2 compared with XIAP: estimated by relative Ki values, cIAP1 and cIAP2 vs XIAP
Chain of cIAP1-BIR3 (Q13490 257-356): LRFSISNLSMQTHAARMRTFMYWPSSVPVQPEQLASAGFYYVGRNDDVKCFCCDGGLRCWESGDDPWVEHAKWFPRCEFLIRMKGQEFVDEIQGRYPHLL
Procedure: (§3) Solutions for assessing SMAC-rhodamine binding to various BIR domains were empirically optimized. […] For cIAP1-BIR3, the assay buffer was 25 mM Hepes [pH 7.5] containing 40 mM β-glycerol phosphate, 1 mM TCEP, and 0.005% Tween 20, typically with 20 nM SMAC-rhodamine. For cIAP1-BIR2, cIAP2-BIR2 and cIAP2-BIR3, assays were performed in 25 mM Hepes [pH 7.5] containing 1 mM TCEP and 0.005% Tween 20, typically with 20 nM SMAC-rhodamine.
(§4) For cIAP1-BIR2, assays were conducted using 25 mM Hepes [pH 7.5] containing 1 mM TCEP, 0.005% Tween 20, ~1 μM cIAP1-BIR2, and 20 nM SMAC-rhodamine. For cIAP1-BIR3, assays were performed using the same buffered solution, except 40 mM β-glycerol phosphate was added and the cIAP1-BIR3 concentration was reduced to 50 nM. For cIAP2-BIR2, assays included a buffer containing 25 mM Hepes [pH 7.5] containing 1 mM TCEP, 0.005% Tween 20, 1 μM cIAP2-BIR2, and 20 nM SMAC-rhodamine. […] IC50 values were determined with a nonlinear fit using Prism software. Ki values were determined from the IC50 values using an online program developed by Nikolovska-Coleska et al. [26].

[3] = target: cIAP1-BIR2 (Homo sapiens, UniProt Q13490); experiment: as above
Chain of cIAP1-BIR2 (Q13490 144-260): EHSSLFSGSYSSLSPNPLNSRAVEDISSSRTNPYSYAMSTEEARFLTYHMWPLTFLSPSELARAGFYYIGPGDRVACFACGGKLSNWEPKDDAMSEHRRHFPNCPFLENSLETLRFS
Procedure: as §3, §4

[4] = target: cIAP2-BIR3 (Homo sapiens, UniProt Q13489); experiment: as above
Chain of cIAP2-BIR3 (Q13489 243-333): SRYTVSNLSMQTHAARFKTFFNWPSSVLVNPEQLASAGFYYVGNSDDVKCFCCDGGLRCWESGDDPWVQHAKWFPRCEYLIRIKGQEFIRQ
Procedure: as §3, §4

[5] = target: cIAP2-BIR2 (Homo sapiens, UniProt Q13489); experiment: as above
Chain of cIAP2-BIR2 (Q13489 129-246): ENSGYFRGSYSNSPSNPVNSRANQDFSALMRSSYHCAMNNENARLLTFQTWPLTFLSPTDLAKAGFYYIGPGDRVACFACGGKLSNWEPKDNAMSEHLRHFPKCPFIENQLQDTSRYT
Procedure: as §3, §4

[6] = system: PC-3 prostate cancer cells; experiment: Cytotoxicity assay, sensitization to TNF (CellTiter-Glo); assay type: cell-based, human; design: key to TNF EC50: IN: EC50 too weak to be determined
Procedure: as §1, §2

[7] = cIAP1 BIR3 Ki, 25 mM Hepes pH 7.5, 1 mM TCEP, 0.005% Tween 20, 20 nM SMAC-rhodamine, 40 mM β-glycerol phosphate, ~50 nM protein, Ki calculated from IC50

Row | Compound | Ki [2, 7] | Ki [3] [nM] | Ki [4] [nM] | Ki [5] [nM] | also measured
1 | CN[C@@H](C)C(=O)N[C@H](C(=O)N[C@@H](C)C(=O)Nc1cccc2ccccc12)C(C)C [compound 15] | 3230 nM and 3200 nM | 8960 | 5100 | 17500 | EC50 ([6]; representative curves, 10 nM TNF, 24 h, CellTiter-Glo, read-out: EC50, sensitization of PC-3 tumor cells to TNF (Fig 5a)): 5300 nM
2 | CC(C)[C@H](NC(=O)[C@H](C)N)C(=O)N[C@@H](C)C(=O)Nc1cccc2ccccc12 [compound 17] | 1230 nM | 3770 | 980 | 5980 | –
3 | CC(C)[C@H](NC(=O)[C@@H](N)CO)C(=O)N[C@@H](C)C(=O)Nc1cccc2ccccc12 [compound 19] | 4370 nM | 8330 | 17200 | 22400 | –
4 | CC[C@H](N)C(=O)N[C@H](C(=O)N[C@@H](C)C(=O)Nc1cccc2ccccc12)C(C)C [compound 20] | 4770 nM | 24900 | 5290 | 43800 | –
5 | CC(C)[C@H](NC(=O)[C@H](C)N)C(=O)N[C@@H](CCCNC(=O)OCc1ccccc1)C(=O)Nc1cccc2ccccc12 [compound 21] | 850 nM | 2770 | 990 | 4790 | –
6 | CN[C@@H](C)C(=O)N[C@H](C(=O)N1CCC[C@H]1C(=O)NNc1ccccc1)C(C)C [compound 22] | 260 nM | 3620 | 560 | 5430 | –
7 | CN[C@@H](C)C(=O)N[C@H](C(=O)N[C@@H](C)C(=O)NNc1ccccc1)C(C)C [compound 23] | 6130 nM and 6100 nM | 7390 | 8290 | 13600 | TNF EC50 ([6]; PC-3 cells, 10 nM TNF, 24 h, cell viability): IN^b; cytotoxicity against PC-3 cells with TNF ([6]; in words): essentially no cytotoxicity; LT-α EC50 ([1]; PC-3 cells, ~90 pM LT-α, 24 h, cell viability): IN^b; cytotoxicity against PC-3 cells with LT-α ([1]; in words): essentially no cytotoxicity
8 | CN[C@@H](C)C(=O)N[C@H](C(=O)N[C@@H](CCCN=C(N)N)C(=O)NNc1ccccc1)C(C)C [compound 28] | 1970 nM | 4390 | 1420 | 15400 | –
9 | CN[C@@H](C)C(=O)N[C@@H](CCC(=O)O)C(=O)N[C@@H](C)C(=O)NNc1ccccc1 [compound 29] | 10900 nM | 7670 | 23000 | 25100 | –
10 | CN[C@@H](C)C(=O)N[C@H](C(=O)N[C@@H](CCCNC(=O)OCc1ccccc1)C(=O)NNc1ccccc1)C(C)C [compound 31] | – | – | 1290 | 2930 | –
11 | CN[C@@H](C)C(=O)N[C@H](C(=O)N[C@@H](CCCN)C(=O)NNc1ccccc1)C(C)C [compound 32] | 4010 nM | 3820 | 2170 | 10900 | –
12 | CN[C@@H](C)C(=O)N[C@H](C(=O)N[C@@H](CCCCN)C(=O)NNc1ccccc1)C(C)C [compound 35] | 2830 nM | 2180 | 1350 | 5090 | –
13 | CC(C)[C@H](NC(=O)[C@H](C)N)C(=O)N1CCC[C@H]1C(=O)NNc1ccccc1 [compound 36] | 340 nM | 6110 | 570 | 12900 | –
14 | AVPIAQK-NH2 [SMAC-7-mer, AVPIAQK, reference compound] | 450 nM | 15400 | 420 | 26400 | –

Further lines, with some results ahead:

Row | Ki [2, 7] | Ki [3] [nM] | Ki [4] [nM] | Ki [5] [nM] | Compound | also measured
15 | 20 nM | 840 | 40 ± 10 | 2340 | CN[C@@H](C)C(=O)N[C@H](C(=O)N1CCC[C@H]1C(=O)N[C@@H]1CCCc2ccccc21)C(C)C [compound 1] | EC50 ([1]; Homo sapiens, representative curves, 90 pM LT-α, 24 h, CellTiter-Glo, read-out: EC50, sensitization of PC-3 tumor cells to LT-α (Fig 5b)): 19 nM; Ki ([2]; Ki against cIAP1-BIR3, FP assay): 24 ± 1 nM; binding affinity for cIAP1 and cIAP2 compared with XIAP [2]: higher affinity binding to cIAP1 and cIAP2 than XIAP
16 | 40 nM | 1110 | 90 | 2080 | CC[C@H](C)[C@H](NC(=O)[C@H](C)NC)C(=O)N1CCC[C@H]1C(=O)N[C@@H]1CCCc2ccccc21 [compound 2] | binding affinity for cIAP1 and cIAP2 compared with XIAP [2]: higher affinity binding to cIAP1 and cIAP2 than XIAP
17 | 60 nM | 2340 | 60 | 5270 | CC[C@H](NC(=O)[C@H](C)NC)C(=O)N1CCC[C@H]1C(=O)N[C@@H]1CCCc2ccccc21 [compound 3] | binding affinity for cIAP1 and cIAP2 compared with XIAP [2]: higher affinity binding to cIAP1 and cIAP2 than XIAP
18 | 60 nM | 1330 | 120 | 4350 | CN[C@@H](C)C(=O)N[C@@H](CC(C)C)C(=O)N1CCC[C@H]1C(=O)N[C@@H]1CCCc2ccccc21 [compound 5] | –
19 | 80 nM | 2160 | 190 | 6380 | CN[C@@H](C)C(=O)N[C@@H](CC(=O)OC)C(=O)N1CCC[C@H]1C(=O)N[C@@H]1CCCc2ccccc21 [compound 6] | –
20 | 9400 nM | > 57200 | 12600 | > 56700 | CN[C@@H](C)C(=O)N[C@@H](CC(=O)O)C(=O)N1CCC[C@H]1C(=O)N[C@@H]1CCCc2ccccc21 [compound 7] | –
21 | 80 nM | 1260 | 150 | 4070 | CN[C@@H](C)C(=O)N[C@@H](CCC(N)=O)C(=O)N1CCC[C@H]1C(=O)N[C@@H]1CCCc2ccccc21 [compound 8] | –
22 | 50 nM | 810 | 70 | 2620 | CN[C@@H](C)C(=O)N[C@H](C(=O)N[C@@H](CCCNC(N)=N[N+](=O)[O-])C(=O)N[C@@H]1CCCc2ccccc21)C(C)C [compound 9] | –
23 | 280 nM | 1410 | 220 | 2070 | CN[C@@H](C)C(=O)N[C@H](C(=O)N[C@@H](CCCNC(=O)OCc1ccccc1)C(=O)N[C@@H]1CCCc2ccccc21)C(C)C [compound 10] | –
24 | 720 nM | 3250 | 550 | 5500 | CN[C@@H](C)C(=O)N[C@H](C(=O)N[C@@H](CCC(N)=O)C(=O)N[C@@H]1CCCc2ccccc21)C(C)C [compound 11] | –
25 | 200 nM | 3310 | 500 | 5460 | CN[C@@H](C)C(=O)N[C@H](C(=O)N[C@@H](CCCCNC(=O)OCc1ccccc1)C(=O)N[C@@H]1CCCc2ccccc21)C(C)C [compound 12] | –
26 | 90 nM | 1470 | 70 | 3750 | CN[C@@H](C)C(=O)N[C@H](C(=O)N[C@@H](CCCN)C(=O)N[C@@H]1CCCc2ccccc21)C(C)C [compound 13] | –
27 | 230 nM | 3090 | 300 | 6810 | CN[C@@H](C)C(=O)N[C@H](C(=O)N[C@@H](CO)C(=O)N[C@@H]1CCCc2ccccc21)C(C)C [compound 14] | –
28 | 180 nM and 200 nM | 1730 | 200 | 3350 | CN[C@@H](C)C(=O)N[C@H](C(=O)N1CCC[C@@H]1C(=O)Nc1cccc2ccccc12)C(C)C [compound 16] | –
29 | 80 nM | – | – | – | CN[C@@H](C)C(=O)N[C@H](C(=O)N1CCC[C@H]1C(=O)Nc1ccc2ccccc2n1)C(C)C [compound 39] | EC50 ([6]; PC-3 cells, 10 nM TNF, 24 h, cell viability, read-out: TNF EC50): 70 nM; EC50 ([1]; PC-3 cells, ~90 pM LT-α, 24 h, cell viability, read-out: LT-α EC50): 30 nM
